Legend:
hypoxic HUVECs = experiment: Immunofluorescent adherence assay, HL60 binding to hypoxic HUVECs; format: cell-based, human
Description: (§1) Hypoxia or free radicals induce P-selectin (PS) translocation to the endothelial cell (EC) surface, where it participates in neutrophil (PMN) adhesion during reperfusion. To explore a mechanism whereby nitrovasodilators may attenuate postischemic leukosequestration, we tested whether stimulating the NO/cGMP pathway could attenuate surface PS expression in hypoxic human umbillical vein ECs. […] Under similar conditions, addition of the NO donor 3-morpholino sydnonimine (SIN-1, 0.1 mM) or the cGMP analog 8-Bromo-cGMP (cGMP, 10 nM) caused a reduction in vWF release; Control vWF, 11±0.4 mU/mL; SIN-1, 9.1±0.3 mU/mL; cGMP, 9.7±0.2 mU/mL; p<0.005 for both SIN-1 or cGMP vs Control.

[1] = system: intracellular calcium concentration [Cai]; experiment: Intracellular calcium by fura-2 fluorescence in hypoxic ECs; format: cell-based, human
Description: as §1

[2] = system: hypoxic human umbillical vein ECs; experiment: vWF release from hypoxic HUVECs, NO/cGMP pathway; format: cell-based; details: hypoxia pO2<20 Torr 4 hours; SIN-1 0.1 mM, 8-Bromo-cGMP 10 nM
Description: as §1

P-selectin [3] = experiment: Surface P-selectin expression on hypoxic HUVECs (radiolabeled anti-PS antibody binding); format: cell-based, human
Description: as §1

P-selectin [4] = experiment: EC P-selectin expression by specific binding of 125I anti-P-selectin antibody; format: cell-based, human; details: cycloheximide 10 μg/mL given at onset of H, 4 hour time point
Description: (§2) Measurement of Weibel-Palade body exocytosis: ECs were plated into 24 well plates, rinsed 3 times with Hank's balanced salt solution, and then exposed to hypoxia or to normoxia for the indicated durations. For experiments in which vWF was measured, cells were maintained in serum-free medium. All other EC experiments were performed in the EC growth medium described above. […] EC P-selectin expression was determined by measuring the specific binding of a murine monoclonal anti-human P-selectin antibody (WAPS 12.2 clone, Endogen, Cambridge, Mass.; this is an IgGl which recognizes a calcium sensitive epitope and blocks P-selectin dependent neutrophil adhesion. Antibody was radiolabelled with ^125I by the lactoperoxidase method (19) using Enzymobeads (Bio-Rad, Hercules, Calif.), stored at 4° C. and used within one week of labelling. Binding assays were performed on HUVECs plated on 96 well plates, in which fresh M199 with 0.1% bovine serum albumin (Sigma, St. Louis, Mo.) was added immediately prior to each experiment. […] After binding for 1 hour at 37° C., monolayers were washed 4 times with HBSS/A, and bound antibody was eluted with 1% triton X-100 in PBS (200 μL/well) and counted. […] Following 4 hours of normoxic exposure, trichloroacetic acid-precipitable material was collected and counted.

Human umbilical vein ECs = experiment: vWF release from hypoxic endothelial cells (ELISA); format: cell-based; details: cycloheximide 10 μg/ml added at start of hypoxic period, 4 hours of hypoxia
Description: Endothelial cell culture and exposure of cells to H or H/R. Human umbilical vein ECs were prepared from umbilical cords and grown in culture by the method of Jaffe (16) as modified by Thornton (17). Experiments utilized confluent ECs (passages 1-4) grown in Medium 199 supplemented with fetal bovine serum (15%; Gemini, Calabasas, Calif.), human serum (5%; Gemini), endothelial growth supplement (Sigma, St. Louis, Mo.), heparin (90 μg/ml; Sigma) and antibiotics, as described (17). When ECs achieved confluence, experiments were performed by placing cultures in an environmental chamber (Coy Laboratory Products, Ann Arbor, Mich.) which provided a controlled temperature (37° C.) and atmosphere with the indicated amount of oxygen, carbon dioxide (5%) and the balance made up of nitrogen. Use of this chamber for cell culture experiments has been described previously (15,18). During exposure of ECs to hypoxia (for a maximum of 16 hours), the oxygen tension in the culture medium was 14-18 torr and there was no change in the medium pH. Reoxygenation was performed by placing ECs in an ambient atmosphere containing carbon dioxide (5%) at 37° C.
Measurement of Weibel-Palade body exocytosis: ECs were plated into 24 well plates, rinsed 3 times with Hank's balanced salt solution, and then exposed to hypoxia or to normoxia for the indicated durations. For experiments in which vWF was measured, cells were maintained in serum-free medium. All other EC experiments were performed in the EC growth medium described above. For measurement of vWF, 200 μL aliquots of culture supernatant was removed at the indicated times, and a commercially available ELISA (American Diagnostica, Greenwich, Conn.), based on a polyclonal goat anti-human vWF antibody, was performed on duplicate specimens, with a standard curve generated using purified human vWF antigen supplied by the same vendor. EC P-selectin expression was determined by measuring the specific binding of a murine monoclonal anti-human P-selectin antibody (WAPS 12.2 clone, Endogen, Cambridge, Mass.; this is an IgGl which recognizes a calcium sensitive epitope and blocks P-selectin dependent neutrophil adhesion. Antibody was radiolabelled with ^125I by the lactoperoxidase method (19) using Enzymobeads (Bio-Rad, Hercules, Calif.), stored at 4° C. and used within one week of labelling. Binding assays were performed on HUVECs plated on 96 well plates, in which fresh M199 with 0.1% bovine serum albumin (Sigma, St. Louis, Mo.) was added immediately prior to each experiment. Cells were placed in a humidified environment at 37° C., and exposed to normoxia or H (in the presence or absence of 50 μM probucol, as indicated, Sigma) for the indicated durations. Cell monolayers were fixed for 15 min. with 1% paraformaldehyde^10 (cells exposed to H were fixed while still within the hypoxic environment), visually inspected to ensure that the monolayers remained intact, and washed twice with HBSS containing 0.5% bovine serum albumin (HBSS/A). Monolayers were then exposed to 10^5 cpm of ^125I-labelled anti-P-selectin antibody (WAPS 12.2) in the presence of 200 μg/mL of either unlabelled blocking antibody (WAPS 12.2) or nonblocking anti-P-selectin IgG of the same isotype (anti-GMP-140, AC1.2 clone, Becton-Dickinson, San Jose, Calif.) (20,21). After binding for 1 hour at 37° C., monolayers were washed 4 times with HBSS/A, and bound antibody was eluted with 1% triton X-100 in PBS (200 μL/well) and counted. […]

ECs = experiment: Protein synthesis: 35S-methionine/cysteine in trichloroacetic acid-precipitable material; format: cell-based; details: Homo sapiens; 10 μg/mL, 4 hrs
Description: as §2

Structure (SMILES)	decrease of HL60 binding to hypoxic HUVECs vs controls (hypoxic HUVECs) [%]	hypoxia-increased intracellular calcium concentration [Cai] [1]	vWF release [2] [mU/mL]	PS expression in calcium-free medium (P-selectin [3]; ECs in calcium-free medium)	decrease of surface PS expression vs controls (P-selectin [3]; hypoxia 4 hours, SIN-1 0.1 mM, 8-Bromo-cGMP 10 nM) [%]	hypoxia-induced endothelial P-selectin expression (P-selectin [4])	decrease of hypoxia-induced vWF release (Human umbilical vein ECs) [%]	inhibition at 10 µg/mL (ECs) [%]
Nc1nc2c(nc(Br)n2[C@@H]2O[C@@H]3COP(=O)(O)O[C@H]3[C@H]2O)c(=O)[nH]1 [cGMP, 8-Bromo-cGMP]	86	could be blocked	9.7±0.2	Neither SIN-1 nor cGMP could further reduce PS expression	48			
C[C@@H]1C[C@@H]([C@H](O)CC2CC(=O)NC(=O)C2)C(=O)[C@@H](C)C1 [cycloheximide]						hypoxia still increased endothelial P-selectin expression, albeit at reduced levels	12.5	> 85
